Patent US9796711B2, “Substituted pyrazolo[3,4-b]pyridin-6-carboxylic acids and method of use” (AbbVie S.àr.l., priority 2015, dated 2017)
pEC50: −log10 of the molar value.

Legend:
[1] = target: T1, ΔF508-CFTR (Homo sapiens, UniProt P13569, DEL508-508); experiment: CFTR cell surface levels using HRP-tagged ΔF508-CFTR expressing CFBE cells, in the presence of a co-corrector; format: cell-based; settings: HRP-tagged ΔF508-CFTR expressing CFBE cells, in the presence of 3 μM co-corrector; for pEC50: read-out: EC50
T1 construct: host or cells: CFBE41o-, doxycycline-inducible
T1 sequence (P13569 with tags, fused parts or gaps DEL508-508): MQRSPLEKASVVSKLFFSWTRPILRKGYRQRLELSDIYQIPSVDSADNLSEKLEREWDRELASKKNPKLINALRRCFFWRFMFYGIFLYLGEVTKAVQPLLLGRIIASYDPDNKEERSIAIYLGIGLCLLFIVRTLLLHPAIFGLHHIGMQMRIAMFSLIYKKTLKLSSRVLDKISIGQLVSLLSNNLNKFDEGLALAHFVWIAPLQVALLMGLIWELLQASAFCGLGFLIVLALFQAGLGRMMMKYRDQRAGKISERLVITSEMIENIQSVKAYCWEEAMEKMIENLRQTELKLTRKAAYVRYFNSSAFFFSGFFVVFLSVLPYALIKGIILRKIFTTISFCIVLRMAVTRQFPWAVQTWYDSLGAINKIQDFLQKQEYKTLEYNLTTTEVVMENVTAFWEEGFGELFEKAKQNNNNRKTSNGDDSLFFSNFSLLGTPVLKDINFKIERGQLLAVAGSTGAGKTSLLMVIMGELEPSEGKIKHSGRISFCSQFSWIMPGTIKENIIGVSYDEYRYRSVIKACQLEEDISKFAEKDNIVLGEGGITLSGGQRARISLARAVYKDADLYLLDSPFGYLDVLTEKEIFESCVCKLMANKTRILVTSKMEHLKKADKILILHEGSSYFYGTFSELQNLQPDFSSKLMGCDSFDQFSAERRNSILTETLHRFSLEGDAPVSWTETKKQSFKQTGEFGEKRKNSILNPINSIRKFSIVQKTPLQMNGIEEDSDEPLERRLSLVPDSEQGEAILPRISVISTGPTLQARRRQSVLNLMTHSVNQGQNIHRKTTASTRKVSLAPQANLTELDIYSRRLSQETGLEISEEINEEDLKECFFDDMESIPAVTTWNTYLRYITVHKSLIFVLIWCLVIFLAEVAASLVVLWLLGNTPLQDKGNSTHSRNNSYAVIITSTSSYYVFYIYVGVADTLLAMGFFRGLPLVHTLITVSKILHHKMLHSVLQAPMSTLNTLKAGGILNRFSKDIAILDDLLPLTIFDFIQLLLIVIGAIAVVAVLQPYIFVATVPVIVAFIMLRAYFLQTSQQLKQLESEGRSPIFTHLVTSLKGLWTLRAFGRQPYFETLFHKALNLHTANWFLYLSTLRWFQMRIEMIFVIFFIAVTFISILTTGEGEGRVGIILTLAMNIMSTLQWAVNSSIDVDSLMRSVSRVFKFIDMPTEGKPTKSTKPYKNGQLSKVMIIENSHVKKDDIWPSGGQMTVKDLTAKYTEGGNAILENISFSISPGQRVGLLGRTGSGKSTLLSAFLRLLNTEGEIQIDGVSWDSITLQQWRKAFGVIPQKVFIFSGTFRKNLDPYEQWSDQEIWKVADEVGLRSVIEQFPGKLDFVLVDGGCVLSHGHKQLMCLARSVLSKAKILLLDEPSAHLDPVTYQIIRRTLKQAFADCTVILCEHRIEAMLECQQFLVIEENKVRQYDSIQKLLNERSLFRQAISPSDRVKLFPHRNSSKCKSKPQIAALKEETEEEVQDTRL
In short: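 Cells were seeded with 0.5 μg/mL doxycycline and held 68 h at 37 °C. Test compounds plus 3 μM co-corrector (final 0.1% DMSO) were then added for 20 h at 33 °C. Washed cells received HRP substrate, and luminescence was normalized between DMSO and 3 μM co-corrector controls.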

[2] = target: T1, ΔF508-CFTR; experiment: CFTR cell surface levels using HRP-tagged ΔF508-CFTR expressing CFBE cells, intrinsic corrector capacity; format: cell-based; settings: for pEC50: read-out: EC50
In short: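 Here the cells express ΔF508-CFTR with horseradish peroxidase inserted in extracellular loop 4, so only rescued channel at the surface gives luminescent signal. Compounds act on their own, 20 h at the reduced temperature of 33 °C; values are percent activity relative to DMSO and a 3 μM corrector.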

[3] = HRP-tagged ΔF508-CFTR expressing CFBE cells, intrinsic corrector capacity (no co-corrector), 33° C., 20 hours
[4] = HRP-tagged ΔF508-CFTR CFBE41o- cells, compounds alone (intrinsic corrector capacity), 20 hours at 33° C., positive control 3 μM corrector
[5] = HRP-tagged ΔF508-CFTR CFBE41o- cells, compounds alone (intrinsic corrector capacity), 20 hours at 33° C.

## O=C(O)c1cc(N2CCC(CN3CC(F)C3)CC2)c2c(C3CCC3)nn(-c3ccccc3)c2n1 [compound 827, 3-cyclobutyl-4-{4-[(3-fluoroazetidin-1-yl)methyl]piperidin-1-yl}-1-phenyl-1H-pyrazolo[3,4-b]pyridine-6-carboxylic acid]
[1]
  % Activation: 453.25%
  pEC50: 7.03
[2]; [3]
  % Activation: 265.4%
  pEC50: 6.59

## CC(C)c1nn(-c2cccc(OC(F)(F)F)c2)c2nc(C(=O)O)cc(-c3ccc(N4CCOCC4)cc3)c12 [compound 269, 4-[4-(morpholin-4-yl)phenyl]-3-(propan-2-yl)-1-[3-(trifluoromethoxy)phenyl]-1H-pyrazolo[3,4-b]pyridine-6-carboxylic acid]
[1]
  % Activation: 452.33%
  pEC50: 6.41
[2]; [4]
  % Activation: 264.3%
[2]; [5]
  pEC50: 6.24

## Cc1nn(-c2ccccc2)c2nc(C(=O)O)cc(OCC(F)C3CCOCC3)c12 (centres unmarked) [compound 377, 4-[2-fluoro-2-(oxan-4-yl)ethoxy]-3-methyl-1-phenyl-1H-pyrazolo[3,4-b]pyridine-6-carboxylic acid]
[1]
  % Activation: 295.65%
  pEC50: 5.82
[2]; [4]
  % Activation: 95.185%
[2]; [5]
  pEC50: 5.78

## Cc1nn(-c2ccccc2)c2nc(C(=O)O)cc(-c3ccc(N4CCC(N(C)C)C4)cc3)c12 (centres unmarked) [compound 217, 4-{4-[3-(dimethylamino)pyrrolidin-1-yl]phenyl}-3-methyl-1-phenyl-1H-pyrazolo[3,4-b]pyridine-6-carboxylic acid]
[1]
  % Activation: 342.3%
  pEC50: 5.83
[2]; [4]
  % Activation: 129.7%
[2]; [5]
  pEC50: 5.82

## CC(C)c1nn(-c2cccc(C(F)(F)F)c2)c2nc(C(=O)O)cc(-c3ccc(N4CCC(C#N)CC4)nc3)c12 [compound 260, 4-[6-(4-cyanopiperidin-1-yl)pyridin-3-yl]-3-(propan-2-yl)-1-[3-(trifluoromethyl)phenyl]-1H-pyrazolo[3,4-b]pyridine-6-carboxylic acid]
[1]
  % Activation: 554.15%
  pEC50: 6.29
[2]; [4]
  % Activation: 326.4%
[2]; [5]
  pEC50: 6.11

## CC(C)c1nn(-c2cc(F)cc(F)c2)c2nc(C(=O)O)cc(-c3ccc(N4CCC(C#N)CC4)cc3)c12 [compound 282, 4-[4-(4-cyanopiperidin-1-yl)phenyl]-1-(3,5-difluorophenyl)-3-(propan-2-yl)-1H-pyrazolo[3,4-b]pyridine-6-carboxylic acid]
[1]
  % Activation: 476.23%
  pEC50: 6.47
[2]; [4]
  % Activation: 269.33%
[2]; [5]
  pEC50: 6.31

## Cc1nn(-c2ccccc2)c2nc(C(=O)O)cc(OCCC3CC(F)(F)C3)c12 [compound 347, 4-[2-(3,3-difluorocyclobutyl)ethoxy]-3-methyl-1-phenyl-1H-pyrazolo[3,4-b]pyridine-6-carboxylic acid]
[1]
  % Activation: 259.55%
  pEC50: 5.85
[2]; [4]
  % Activation: 79.835%
[2]; [5]
  pEC50: 5.85

## CCOCC1(F)CCN(c2cc(C(=O)O)nc3c2c(C2CCC2)nn3-c2ccccc2)C1 (centres unmarked) [compound 510, 3-cyclobutyl-4-[3-(ethoxymethyl)-3-fluoropyrrolidin-1-yl]-1-phenyl-1H-pyrazolo[3,4-b]pyridine-6-carboxylic acid]
[1]
  % Activation: 313.2%
  pEC50: 6.40
[2]; [3]
  % Activation: 99.8%
  pEC50: 5.95

## CC(C)OC1CN(c2cc(C(=O)O)nc3c2c(C2CCC2)nn3-c2ccccc2)C1 [compound 573, 3-cyclobutyl-1-phenyl-4-{3-[(propan-2-yl)oxy]azetidin-1-yl}-1H-pyrazolo[3,4-b]pyridine-6-carboxylic acid]
[1]
  % Activation: 376%
  pEC50: 6.52
[2]; [3]
  % Activation: 149.7%
  pEC50: 6.01

## CN1CC[C@H](Oc2cc(C(=O)O)nc3c2c(C2CCC2)nn3-c2ccccc2)C1 [compound 651, 3-cyclobutyl-4-{[(3S)-1-methylpyrrolidin-3-yl]oxy}-1-phenyl-1H-pyrazolo[3,4-b]pyridine-6-carboxylic acid]
[1]
  % Activation: 187.9%
  pEC50: 5.66
[2]; [3]
  % Activation: 54.22%
  pEC50: 5.48

## CN(C)CC1CN(c2cc(C(=O)O)nc3c2c(C2CCC2)nn3-c2ccccc2)CCO1 (centres unmarked) [compound 562, 3-cyclobutyl-4-{2-[(dimethylamino)methyl]morpholin-4-yl}-1-phenyl-1H-pyrazolo[3,4-b]pyridine-6-carboxylic acid]
[1]
  % Activation: 347%
  pEC50: 6.04
[2]; [3]
  % Activation: 154.7%
  pEC50: 5.75

## O=C(O)c1cc(OC2CCC(F)(F)CC2)c2c(C3CCC3)nn(-c3ccccc3)c2n1 [compound 578, 3-cyclobutyl-4-[(4,4-difluorocyclohexyl)oxy]-1-phenyl-1H-pyrazolo[3,4-b]pyridine-6-carboxylic acid]
[1]
  % Activation: 301.55%
  pEC50: 6.65
[2]; [3]
  % Activation: 118.2%
  pEC50: 6.48

## Cc1nn(-c2ccccc2)c2nc(C(=O)O)cc(-c3ccc(N4CCOCC4)cc3Cl)c12 [compound 26, 4-[2-chloro-4-(morpholin-4-yl)phenyl]-3-methyl-1-phenyl-1H-pyrazolo[3,4-b]pyridine-6-carboxylic acid]
[1]
  % Activation: 258.4%
  pEC50: 5.96
[2]; [4]
  % Activation: 83.24%
[2]; [5]
  pEC50: 5.90

## COC1CN(c2cc(C(=O)O)nc3c2c(C2CCC2)nn3-c2ccccc2)C1 [compound 542, 3-cyclobutyl-4-(3-methoxyazetidin-1-yl)-1-phenyl-1H-pyrazolo[3,4-b]pyridine-6-carboxylic acid]
[1]
  % Activation: 290.6%
  pEC50: 5.75
[2]; [3]
  % Activation: 104.6%
  pEC50: 5.73

## N#CCN1CC(c2nn(-c3ccccc3)c3nc(C(=O)O)cc(-c4ccc(N5CCOCC5)cc4)c23)C1 [compound 148, 3-[1-(cyanomethyl)azetidin-3-yl]-4-[4-(morpholin-4-yl)phenyl]-1-phenyl-1H-pyrazolo[3,4-b]pyridine-6-carboxylic acid]
[1]
  % Activation: 238.75%
  pEC50: 5.48
[2]; [4]
  % Activation: 79.64%
[2]; [5]
  pEC50: 5.48

## CC1(O)CN(c2cc(C(=O)O)nc3c2c(C2CCC2)nn3-c2ccccc2)C1 [compound 536, 3-cyclobutyl-4-(3-hydroxy-3-methylazetidin-1-yl)-1-phenyl-1H-pyrazolo[3,4-b]pyridine-6-carboxylic acid]
[1]
  % Activation: 209.35%
  pEC50: 5.61
[2]; [3]
  % Activation: 49.72%
  pEC50: 5.48

## CC(C)c1nn(-c2cccc(N(C)C)n2)c2nc(C(=O)O)cc(-c3ccc(N4CCOCC4)cc3)c12 [compound 267, 1-[6-(dimethylamino)pyridin-2-yl]-4-[4-(morpholin-4-yl)phenyl]-3-(propan-2-yl)-1H-pyrazolo[3,4-b]pyridine-6-carboxylic acid]
[1]
  % Activation: 498.35%
  pEC50: 6.38
[2]; [4]
  % Activation: 318.9%
[2]; [5]
  pEC50: 6.09

## CC1(COc2cc(C(=O)O)nc3c2c(C2CCC2)nn3-c2ccccc2)COC1 [compound 490, 3-cyclobutyl-4-[(3-methyloxetan-3-yl)methoxy]-1-phenyl-1H-pyrazolo[3,4-b]pyridine-6-carboxylic acid]
[1]
  % Activation: 311.1%
  pEC50: 6.53
[2]; [3]
  % Activation: 144.95%
  pEC50: 6.40

## N#CC1CCN(c2ccc(-c3cc(C(=O)O)nc4c3c(OC3CCNC3)nn4-c3ccccc3)cn2)CC1 (centres unmarked) [compound 550, 4-[6-(4-cyanopiperidin-1-yl)pyridin-3-yl]-1-phenyl-3-[(pyrrolidin-3-yl)oxy]-1H-pyrazolo[3,4-b]pyridine-6-carboxylic acid]
[1]
  % Activation: 122.4%
  pEC50: < 5.00
[2]; [3]
  % Activation: 4.775%
  pEC50: < 5.00

## CC(C)c1nn(-c2cccc(N3CC(C)(C)C3)c2)c2nc(C(=O)O)cc(-c3ccc(N4CCOCC4)cc3)c12 [compound 160, 1-[3-(3,3-dimethylazetidin-1-yl)phenyl]-4-[4-(morpholin-4-yl)phenyl]-3-(propan-2-yl)-1H-pyrazolo[3,4-b]pyridine-6-carboxylic acid]
[1]
  % Activation: 544.87%
  pEC50: 6.48
[2]; [4]
  % Activation: 318.83%
[2]; [5]
  pEC50: 6.35

## CS(=O)(=O)[C@@H]1CCN(c2cc(C(=O)O)nc3c2c(C2CCC2)nn3-c2ccccc2)C1 [compound 467, 3-cyclobutyl-4-[(3R)-3-(methanesulfonyl)pyrrolidin-1-yl]-1-phenyl-1H-pyrazolo[3,4-b]pyridine-6-carboxylic acid]
[1]
  % Activation: 274.35%
  pEC50: 5.48
[2]; [3]
  % Activation: 97.95%
  pEC50: 5.48

## O=C(O)c1cc(-c2ccc(N3CCN(C4CC4)CC3)nc2)c2c(C3CCC3)nn(C3CCCCC3)c2n1 [compound 868, 3-Cyclobutyl-1-cyclohexyl-4-[6-(4-cyclopropylpiperazin-1-yl)-pyridin-3-yl]-1H-pyrazolo[3,4-b]pyridine-6-carboxylic acid]
[1]
  % Activation: 337.8%
  pEC50: 6.75
[2]; [3]
  % Activation: 140.3%
  pEC50: 6.62

## Cc1nn(-c2ccccc2)c2nc(C(=O)O)cc(N3CCCCC3=O)c12 [compound 150, 3-methyl-4-(2-oxopiperidin-1-yl)-1-phenyl-1H-pyrazolo[3,4-b]pyridine-6-carboxylic acid]
[1]
  % Activation: 115.3%
  pEC50: < 5.00
[2]; [4]
  % Activation: 6.341%
[2]; [5]
  pEC50: < 5.00
